The values below come from BindingDB's records for doi:10.1021/ml100283h (2011).

Data set [1] addresses T1, Cytochrome P450 11B2, mitochondrial (Homo sapiens, UniProt P19099).
T1 sequence (P19099 whole entry): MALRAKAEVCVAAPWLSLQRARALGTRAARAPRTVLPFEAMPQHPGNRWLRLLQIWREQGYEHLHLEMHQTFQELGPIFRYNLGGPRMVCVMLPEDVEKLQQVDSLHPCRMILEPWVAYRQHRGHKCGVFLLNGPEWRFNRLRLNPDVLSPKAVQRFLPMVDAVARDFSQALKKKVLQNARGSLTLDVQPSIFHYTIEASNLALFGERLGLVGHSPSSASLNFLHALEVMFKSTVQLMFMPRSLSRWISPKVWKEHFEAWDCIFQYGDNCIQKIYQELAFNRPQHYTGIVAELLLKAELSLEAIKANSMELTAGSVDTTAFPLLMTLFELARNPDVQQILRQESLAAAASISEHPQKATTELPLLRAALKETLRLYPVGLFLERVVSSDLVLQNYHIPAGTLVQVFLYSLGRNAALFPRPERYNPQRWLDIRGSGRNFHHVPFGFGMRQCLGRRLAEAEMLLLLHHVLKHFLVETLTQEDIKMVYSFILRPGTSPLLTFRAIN
The data set is described as follows: Inhibition of human CYP11B2 expressed in hamster V79 MZ cells using [3H] 11 deoxycorticosterone as substrate by HPLC radioflow detector.

In data set [2] the target is T2, Cytochrome P450 11B1, mitochondrial (Homo sapiens, UniProt P15538).
T2 sequence (P15538 whole entry): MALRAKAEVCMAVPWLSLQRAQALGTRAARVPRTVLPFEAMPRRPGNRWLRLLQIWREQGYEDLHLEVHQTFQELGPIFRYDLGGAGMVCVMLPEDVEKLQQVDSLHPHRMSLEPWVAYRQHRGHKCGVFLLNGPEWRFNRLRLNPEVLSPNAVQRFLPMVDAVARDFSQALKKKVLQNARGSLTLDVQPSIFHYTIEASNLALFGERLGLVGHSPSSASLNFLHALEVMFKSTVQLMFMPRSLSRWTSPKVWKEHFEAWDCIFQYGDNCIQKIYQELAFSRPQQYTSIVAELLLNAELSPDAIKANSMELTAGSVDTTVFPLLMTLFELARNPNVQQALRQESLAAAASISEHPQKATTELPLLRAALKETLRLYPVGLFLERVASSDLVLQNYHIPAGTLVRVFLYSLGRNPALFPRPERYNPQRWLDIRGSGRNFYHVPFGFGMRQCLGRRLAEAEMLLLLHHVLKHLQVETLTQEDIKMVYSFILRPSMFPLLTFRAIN
The data set is described as follows: Inhibition of human CYP11B1 expressed in hamster V79 MZ cells using [3H] 11 deoxycorticosterone as substrate by HPLC radioflow detector.

Each structure is given as a SMILES string.

For the molecule `c1ccc(-c2ccc(Cn3ccnc3)cn2)cc1` [5-((1H-imidazol-1-yl)methyl)-2-phenylpyridine], the results for the IC50 in data set [1] and in data set [2] were 2770 nM and 152 nM, respectively.
